The text below walks through data of PMC9714824, “Hexapeptides from mammalian inhibitory hormone hunt activate and inactivate nematode reproduction” (PLOS ONE, 2022).

Experiment [1] deals with Steinernema siamkayai. The experiment can be described thus: Nematode pilot study fecundity (S3 Table 1). Format: in vivo. The note with it: inoculum 5 IJs. The text has this: (§1) The attempt was made here to replicate prior fecundity work in another species of nematode, the entomopathogenic (insect slaying) Steinernema siamkayai. Species confirmation involved standard morphological and molecular techniques (S3 File, Nematodes). S. siamkayai is a biocontrol agent of potential economic significance in global agriculture, reducing the need for pesticides. Crucial for deployment is the production of ‘infective juveniles’. These forms penetrate the larvae of insect pests, releasing a bacterium, Xenorhabdus spp., which ultimately kills the larvae. Stock solutions (5 mg mL^-1) of EPL036 (IEPVFT) and EPL630 (KLKMNG) were made up and stored at −20 °C. Lipid Agar plates were prepared by pouring 5 ml media in 60 mm plastic Petri dishes. The plates were inoculated with an overnight-grown bacterial culture of Xenorhabdus spp. (10^9 cfu/ml) at 100 μl/plate and incubated at 28 °C for 24h. Xenorhabdus bacteria are symbiotically associated with S. siamkayai. While multiplying, Xenorhabdus metabolises the constituents of the lipid agar and the resulting by-products are the food supplement for the nematodes that triggers the worms to grow and multiply. From the stock solutions, peptides were introduced individually into the centre of the Lipid Agar plates with Xenorhabdus lawn. Two concentrations of peptide were used, 4 and 8 μL of the 5 mg mL^-1 stock peptide solutions (making 20 and 40 μg of peptide per plate in total, respectively, i.e. ~6 and ~12 μM). Each peptide solution was uniformly spread using an L shaped spreader and allowed to absorb into the agar plate for 10 minutes. Nematodes were harvested beforehand as follows. Third-stage infective juveniles (IJs) of S. siamkayai were used to infect fourth instar Galleria larvae. Following larval death, the Galleria cadavers were placed on a White’s Trap to harvest fresh progeny within 5–6 days. After storage in sterile water, these new-generation IJs were concentrated and inoculated on the bacterial plates on Day 1 at 500 and 1000 IJs /plate. The eight treatments (two inocula at two peptide concentrations) and two controls (two inocula without peptides) were replicated (x3) and incubated at 28 °C. Observations of behaviour and morphology were made at intervals throughout the study, then on Day 5 (i.e. after 4 units of 24h) the nematodes were harvested. Two ml of distilled water was poured on each Petri dish and gently stirred to release the nematodes from the surface. The surface washings containing suspended nematodes were collected in a standard volume of 20 ml of distilled water. The number of mature adults (male and female) and the second-generation juveniles (J1, J2, J3 and pre-adults) were counted using a dissecting microscope (x10 magnification, 4 fields) in 0.05 ml subsamples (x3) and multiplied up to the standard volume of 20 ml.
Mean number of A) Infective juveniles and B) Adults following inoculation of Petri dishes treated with EPL036 and EPL630 at 4 µL and 8 µL and an untreated control; Petri dishes were initially inoculated with 5 infective juveniles of Steinernema siamkayai following the method used in the main manuscript (Single way ANOVA presented beneath each data set).

Experiment [2] deals with Steinernema siamkayai. Nature of the experiment: Steinernema siamkayai reproduction and development on lipid agar plates with hexapeptides. Format: in vivo. The arrangement: key to Infective juveniles / Adults: counts per plate, scaled from 0.05 ml subsamples to 20 ml.
Description: as §1
Fig 2 Developmental impact on Steinernema siamkayai of hexapeptides after 4 days. INOCULUM = founding population of infective juveniles (IJs). ‘Infective juveniles’ on the vertical axis are mostly second-generation IJs. Peptides applied at the start of the study were EPL036 = IEPVFT, […] = KLKMNG. Total = Adults + Infective juveniles. Data are mean +/- SEM (average of 3 replicates). Statistical analysis: ANOVA. Control bars are doubly represented for ease of comparison. Note different vertical axes. […]

Another experiment relates to Caenorhabditis elegans. The note with it: in words; cited from earlier work. The source says:
As a control compound there was synthesized EPL030, having the aa sequence KLKMNGKNIEPVFT. This is a scrambling of EPL001’s sequence, based on cards drawn at random by one of us (CRM). […] The figures for fecundity were EPL001 +43 ... || Returning to EPL030, the scrambled-sequence EPL001 comparator, this has engendered perplexity by displaying the same activity as EPL001 across multiple mammalian systems. Thus, EPL030 suppressed human prostate cancer cells in vitro more than EPL001 in two laboratories and the proliferation of rat bone marrow cells in vitro in a third.

The test system of experiment [3] is human marrow derived mesenchymal stem cells (hMSCs). The experiment can be described thus: Peptide immobilisation studies, hMSC proliferation (CyQuant) and FACS. Format: cell-based. The following applies: alanine substitution study; for Mean cell number: N-terminally tethered, seeding 5,000 cells per well, CyQuant, mean +/− SEM, n = 3. The source says: Could the antiproliferative activity in vitro of EPL001 in solution be more predictably evoked and investigated more readily if the peptide is instead tethered to the cell culture’s substratum? […] In the first study EPL001 was immobilised by either its N terminus or C terminus and human stem cells exposed accordingly. This followed a confirmation of dissolved EPL001’s antiproliferative activity in the same laboratory (JAH). In the second study, aa sections of EPL001 were substituted with alanine strings prior to tethering, to define a functional biological motif. Into the base of each well of a 24-well plate was inserted a glass coverslip (13mm diameter, borosilicate glass, SLS, Nottingham, UK), upon the upper surface of which had been immobilised an individual peptide using a bioconjugate technique. During preparation of the coverslips, the surfaces were modified with carboxyl (−COOH) or amine (−NH2) groups separately using a published method. The carboxyl on the coverslips or at the end of the peptide sequence were reacted with NHS in the presence of EDC, resulting in a semi-stable NHS ester, which could then be reacted with primary amines (−NH2) on the coverslips or at the end of the peptide sequences to form amide crosslinks. For the carboxyl modified coverslips, the final peptide grafted on to the surface via its NH2 terminus was in the form Glass-CO-NH-Peptide. For the amine modified coverslips, the final peptide grafted on to the surface via its COOH terminus was in the form Glass-NH-CO-Peptide. The concentration of the peptides across the glass was approximately […]. Uncoated glass was used as the reference control. Treatments were in triplicate (i.e. n = 3). The cells used were human marrow derived mesenchymal stem cells (hMSCs, Lonza, Slough, UK, cat No PT-2507). In the EPL001-terminus study they were seeded at 10,000 cells per well; in the alanine substitution study the density was 5,000 cells per well. The cells were maintained in DMEM with 10% FSC. EPL001 and three alanine-substituted versions of it were deployed separately: MKPLTGKVKEFNNI (EPL001), AAAAAGKVKEFNNI (EPL590), MKPLTAAAAEFNNI (EPL545) and MKPLTGKVKEAAAA (EPL104). The peptides in the alanine substitution study were N-terminally tethered to the substrate. Cell numbers were measured by CyQuant® (Invitrogen, Paisley, UK). […] Statistical analysis was by ANOVA using SPSS software.
Four 14-aa peptides were synthesised: MKPLTGKVKEFNNI (EPL001), AAAAAGKVKEFNNI (EPL590), MKPLTAAAAEFNNI (EPL545) and MKPLTGKVKEAAAA (EPL104). The peptides were generated from l-isomer amino acids by solid phase peptide synthesis (Model 9050, Milligen). All peptides were N-terminally tethered to the substrate by a bioconjugate technique. MSCs were derived from human bone marrow and maintained in DMEM with 10% FSC. Cells were seeded on peptide treated surfaces including a glass control in a 24-well plate with cell density 5 x 10^3. The growth inhibitory activity was examined via cell proliferation assays and cell cycle analysis, using PI and Ki-67 staining. The cell phenotype and viability (7-AAD) were analysed by flow cytometry.

A further experiment concerns DU145 cells. The experiment can be described thus: MTS viable cell assay, DU145 (Epistem). Format: cell-based, human. The note with it: in words. As to the method:
Further assays on human prostate cancer cells were conducted at a contract research organisation (Epistem, Manchester, UK). LNCaP or DU145 cells seeded at 3,000 cells/well across a 96-well plate were cultured in RPMI (phenol red free), 10% FCS, 1% sodium pyruvate, Pen/strep and L-glutamine for 24h before exposure to peptides, at a single dose level in the case of LNCaPs or multiple dose levels in the case of DU145s. (For dose levels see Results.) Controls received vehicle (1% PBS). For the DU145s peptide administration was repeated after 24h. 72h after the first administration (DU145s) or only administration (LNCaP) total viable cell numbers were measured colorimetrically (MTS) using a CellTiter 96 AQueous One Solution Cell Proliferation Assay (Promega, Southampton, UK), following manufacturer’s instructions. Briefly, the media on the plates was replaced with the CellTiter reagent diluted 1:5 in DMEM. The plates were returned to the incubator for 3 hours before reading absorbance at 492 nm on a FLUORstar OPTIMA (BMG Labtech). CellTiter data are the absorbance minus background values (CellTiter plus DMEM), expressed as (OD mean +/− SEM). Statistical analysis was by ANOVA, Dunnett’s multiple comparisons test.

The test system of experiment [4] is hDPSC (Human Dental Pulp Derived Mesenchymal-Like Stem/Progenitor Cells). The arrangement: method as in earlier work. The note with it: EPL001 0.15µM or EPL140 15µM, three days; cited from earlier work.
The test system of a further experiment is hMSCs. Further details: method as in earlier work. The following applies: EPL001 0.15µM or EPL140 15µM, three days; cited from earlier work.

With KLKMNG [EPL630, KLKMNG, EPL030 Front 6], the Adults in the experiment on Steinernema siamkayai [1] (4 µL, mean of 9 reps) is 1.9; in the experiment with Steinernema siamkayai [1] (4 µL, rep 1) it was 1; with Steinernema siamkayai [1] (4 µL, rep 2) it was 1; in the experiment on Steinernema siamkayai [1] (4 µL, rep 3), 2; in the experiment on Steinernema siamkayai [1] (4 µL, rep 4), 2; with Steinernema siamkayai [1] (4 µL, rep 5), 2. In addition, the Adults is listed as 3 in the experiment on Steinernema siamkayai [1] (4 µL, rep 6); 2 with Steinernema siamkayai [1] (4 µL, rep 7); 2 with Steinernema siamkayai [1] (4 µL, rep 8); 2 in the experiment on Steinernema siamkayai [1] (4 µL, rep 9); 4 in the experiment on Steinernema siamkayai [1] (8 µL, rep 1); 5 in the experiment on Steinernema siamkayai [1] (8 µL, rep 2). This substance showed an Adults in the experiment with Steinernema siamkayai [2] (S3 Table 2, 8 µL, inoculum 500, mean of 3 reps) of 363. The same substance returned an Infective juveniles in the experiment on Steinernema siamkayai [1] (4 µL, mean of 9 reps) of 10.1. In the experiment on Steinernema siamkayai [2] (compared with untreated controls, 48h exposure (Fig 3)), the “Egg production in females” value is reported as “markedly below that of controls”. For the same substance, in the experiment on Steinernema siamkayai [2] (controls ~23%), the “Adults as % of the population at termination” value is 26–29%. In addition, the “Time after incubation to fully grown males and females” value in the experiment on Steinernema siamkayai [2] (observational) is given as 48 h. In the experiment with Steinernema siamkayai [2] (observational), the “Time for infective juveniles to transform into pre-adults” value is on record as “about 36 h”.
With “KLKNMGNKIEPVFT [EPL040, Scrambled EPL001 control]”, the “Fecundity effect in C. elegans” value in the experiment on Caenorhabditis elegans is given as “anti-fecundity”.
In the case of “MKPLTAAAAEFNNI [EPL545, Substituted EPL001; alanines 6–9]”, in experiment [3] (Day 7), the “Cell number vs Glass” value is recorded as −29% and the Mean cell number was 10,007 +/−3,281. In experiment [3] (Day 14), the “Cell number vs Glass” value is reported as −32% and the Mean cell number is 18,055 +/−1,771.
On to “MKPLTGKVKEAAAA [EPL104, Substituted EPL001; alanines 11–14]”, for which the “Mean cell number below that of EPL001-N” value in experiment [3] (14 days) is 16%. For the same substance, in experiment [3] (Day 7), the “Cell number vs Glass” value is −29% and the Mean cell number is recorded as 10,010 +/−4,427. In experiment [3] (Day 14), the “Cell number vs Glass” value is on record as −37% and the Mean cell number is reported as 16,736 +/−1,302. The “Number of cells in the G0/G1 phase” value in experiment [3] (FACS, PI, 86% for glass control) amounted to 90%. The “Ki67 staining, % of cells” value in experiment [3] (at termination, control cells 26.95%) is 12.69%.
For the substance “MKPVFNNI [EPL801, EPL601 with all of the C-terminal triplet NNI from sSgII-70]”, the Cell inhibitory activity result in the experiment with DU145 cells was “inactive”.
On to “MLKTGEKPNKFNNI [EPL140, Variant of human model compound EPL141, with KF instead of FK]”, for which, in experiment [4], the Bmal1 expression entry was “↑↑”, the OCN expression entry is “↓↓”, the PPARγ expression entry is listed as “↓” and the Per2 expression entry was “↑↑”. In experiment [4], the Rev-ErbA expression entry is reported as “↓” and the Sox9 expression result is listed as “(↑)”. For the same substance, in the experiment with hMSCs, the Bmal1 expression entry is listed as “↑”, the OCN expression result was “↓”, the PPARγ expression entry was “↓↓” and the Per2 expression result was “↓”. Also, in the experiment with hMSCs, the Rev-ErbA expression result is on record as “↓” and the Sox9 expression entry is reported as “↓↓”.
